The source made the active and inactive calls. The calls are words filed in the database; no cut-off is given here.
How the values were obtained:
[1] = tested on: Human immunodeficiency virus; experiment: Antiviral activity against HIV 3B assessed as inhibition of infection of NCK45-beta-Gal cells after 48 hrs; type: functional, organism-based; conditions: Human immunodeficiency virus 1, 3B
[2] = Cytotoxicity against human NCK45 cells at 10 uM; type: cell-based; conditions: nck45, 10 µM
[3] = tested on: Human immunodeficiency virus; experiment: Antiviral activity against HIV 3B assessed as prevention of early stage infection of NCK45-beta-Gal cells up to 48 hrs; type: functional, organism-based

| EC50 [1] | Structure (SMILES) | Activity [2] | inhibition [3] |
| --- | --- | --- | --- |
| 410 nM | c1cnn(-c2ccc3c(c2)SN2CCCN=C32)c1 | Non-toxic | – |
| 1780 nM | FC(F)(F)c1ccc2c(c1)C1=NCCCN1S2 | Non-toxic | – |
| 2110 nM | COc1ccc2c(c1)C1=NCCCN1S2 | Non-toxic | – |
| 100 nM | COc1cccc(-c2ccc3c(c2)SN2CCCN=C32)c1 | Non-toxic | – |
| 560 nM | c1ccc(-c2ccc3c(c2)C2=NCCCN2S3)cc1 | Non-toxic | – |
| 1470 nM | Oc1cccc(-c2ccc3c(c2)SN2CCCN=C32)c1 | Non-toxic | – |
| 560 nM | c1cncc(-c2ccc3c(c2)SN2CCCN=C32)c1 | Non-toxic | – |
| > 1000 nM | c1ccc2c3c(ccc2c1)C1=NCCCN1S3 | Toxic | – |
| 850 nM | Cc1ccc2c(c1)C1=NCCCN1S2 | Non-toxic | – |
| 420 nM | c1cn(-c2ccc3c(c2)SN2CCCN=C32)nn1 | Non-toxic | – |
| 160 nM | c1cc2c(cc1-c1ccc3c(c1)SN1CCCN=C31)OCO2 | Non-toxic | – |
| 1280 nM | FC(F)(F)c1ccc2c(c1)SN1CCCN=C21 | Non-toxic | – |
| 300 nM | N=C1Sc2ccccc2C2=NCCCN12 | – | Active |
| 560 nM | c1cc(-c2ccc3c(c2)SN2CCCN=C32)ccn1 | Non-toxic | – |
| 1280 nM | Oc1ccc(-c2ccc3c(c2)SN2CCCN=C32)cc1 | Non-toxic | – |
| 340 nM | c1ccc(-c2ccc3c(c2)SN2CCCN=C32)nc1 | Non-toxic | – |

| EC50 [1] | Structure (SMILES) | Activity [2] | inhibition [3] |
| --- | --- | --- | --- |
| 1010 nM | Brc1ccc2c(c1)C1=NCCCN1S2 | Non-toxic | – |
| 120 nM | O=[N+]([O-])c1cccc(-c2ccc3c(c2)SN2CCCN=C32)c1 | Non-toxic | – |
| 50 nM | COC(=O)c1cccc(-c2ccc3c(c2)SN2CCCN=C32)c1 | Non-toxic | Active |
| 50 nM | c1coc(-c2ccc3c(c2)SN2CCCN=C32)c1 | Non-toxic | Active |
| 80 nM | O=[N+]([O-])c1ccc(-c2ccc3c(c2)SN2CCCN=C32)cc1 | Non-toxic | – |
| 220 nM | Brc1ccc2c(c1)SN1CCCN=C21 | Non-toxic | – |
| > 10000 nM | CC(=O)Nc1ccc2c(c1)SN1CCCN=C21 | Non-toxic | – |
| 80 nM | c1cc(-c2ccc3c(c2)SN2CCCN=C32)cs1 | Non-toxic | – |
| 300 nM | c1ccc(-c2ccc3c(c2)SN2CCCN=C32)cc1 | Non-toxic | – |
| 580 nM | COc1ccc2c(c1)SN1CCCN=C21 | Non-toxic | – |
| 290 nM | c1ccc2c(c1)SN1CCCN=C21 | Non-toxic | Active |
| 160 nM | COC(=O)c1ccc(-c2ccc3c(c2)SN2CCCN=C32)cc1 | Non-toxic | – |
| > 10000 nM | Brc1cccc2c1SN1CCCN=C21 | Non-toxic | – |
| 120 nM | c1ccc2cc(-c3ccc4c(c3)SN3CCCN=C43)ccc2c1 | Non-toxic | – |
| 1790 nM | O=[N+]([O-])c1ccc2c(c1)SN1CCCN=C21 | Non-toxic | – |
| 90 nM | COc1ccc(-c2ccc3c(c2)SN2CCCN=C32)cc1 | Toxic | – |

— ChEMBL document CHEMBL3399992, “Identification of anti-HIV agents with a novel benzo[4,5]isothiazolo[2,3-a]pyrimidine scaffold” (Bioorg Med Chem, 2015)
